We go through 28 compounds from US10988477B2 (Merck Patent GmbH, priority 2018, dated 2021).

Assay [1] addresses intracellular GCN2 (phosphorylation of the GCN2 substrate eIF2α) (Homo sapiens, UniProt Q9P2K8). As to the kind of experiment: GCN2 cellular inhibition assay (AlphaScreen SureFire P-eIF2α Ser51, borrelidin-treated U2OS cells). The class given is cell-based. Conditions: compounds of Formula II; biomarker assay, phosphorylated eIF2α Ser51 in borrelidin-treated U2OS cells. The method, boiled down: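 Read-out: AlphaScreen SureFire phospho-eIF2α (Ser51) signal in U2OS lysates. Cells get 4-fold compound dilutions (top 40 μM final) plus 10 μM borrelidin, 1 h, 37 °C. Percent inhibition is relative to borrelidin-alone controls.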
(In general: In Alpha technology, singlet oxygen from a donor bead excites a nearby acceptor bead.)

For another assay, the target named is GCN2 kinase (Homo sapiens, UniProt Q9P2K8). Nature of the assay: GCN2 enzyme inhibition assay (Transcreener ADP2 fluorescence polarization). The class given is biochemical. Conditions: compounds of Formula II; 280 μM ATP, 4 nM GCN2 kinase. A digest of the protocol: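 Kinase activity is followed as ADP formation, measured by fluorescence polarization, using 4 nM enzyme with 280 μM ATP and 200 μM (RS)7 peptide at pH 7.5 and 25 °C for 1 h. Values come from a non-linear tight-binding fit.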
(In general: In fluorescence polarisation assays a small probe gives low polarisation when free and higher when bound to something large.)

Sequence of GCN2 kinase (Q9P2K8 whole entry): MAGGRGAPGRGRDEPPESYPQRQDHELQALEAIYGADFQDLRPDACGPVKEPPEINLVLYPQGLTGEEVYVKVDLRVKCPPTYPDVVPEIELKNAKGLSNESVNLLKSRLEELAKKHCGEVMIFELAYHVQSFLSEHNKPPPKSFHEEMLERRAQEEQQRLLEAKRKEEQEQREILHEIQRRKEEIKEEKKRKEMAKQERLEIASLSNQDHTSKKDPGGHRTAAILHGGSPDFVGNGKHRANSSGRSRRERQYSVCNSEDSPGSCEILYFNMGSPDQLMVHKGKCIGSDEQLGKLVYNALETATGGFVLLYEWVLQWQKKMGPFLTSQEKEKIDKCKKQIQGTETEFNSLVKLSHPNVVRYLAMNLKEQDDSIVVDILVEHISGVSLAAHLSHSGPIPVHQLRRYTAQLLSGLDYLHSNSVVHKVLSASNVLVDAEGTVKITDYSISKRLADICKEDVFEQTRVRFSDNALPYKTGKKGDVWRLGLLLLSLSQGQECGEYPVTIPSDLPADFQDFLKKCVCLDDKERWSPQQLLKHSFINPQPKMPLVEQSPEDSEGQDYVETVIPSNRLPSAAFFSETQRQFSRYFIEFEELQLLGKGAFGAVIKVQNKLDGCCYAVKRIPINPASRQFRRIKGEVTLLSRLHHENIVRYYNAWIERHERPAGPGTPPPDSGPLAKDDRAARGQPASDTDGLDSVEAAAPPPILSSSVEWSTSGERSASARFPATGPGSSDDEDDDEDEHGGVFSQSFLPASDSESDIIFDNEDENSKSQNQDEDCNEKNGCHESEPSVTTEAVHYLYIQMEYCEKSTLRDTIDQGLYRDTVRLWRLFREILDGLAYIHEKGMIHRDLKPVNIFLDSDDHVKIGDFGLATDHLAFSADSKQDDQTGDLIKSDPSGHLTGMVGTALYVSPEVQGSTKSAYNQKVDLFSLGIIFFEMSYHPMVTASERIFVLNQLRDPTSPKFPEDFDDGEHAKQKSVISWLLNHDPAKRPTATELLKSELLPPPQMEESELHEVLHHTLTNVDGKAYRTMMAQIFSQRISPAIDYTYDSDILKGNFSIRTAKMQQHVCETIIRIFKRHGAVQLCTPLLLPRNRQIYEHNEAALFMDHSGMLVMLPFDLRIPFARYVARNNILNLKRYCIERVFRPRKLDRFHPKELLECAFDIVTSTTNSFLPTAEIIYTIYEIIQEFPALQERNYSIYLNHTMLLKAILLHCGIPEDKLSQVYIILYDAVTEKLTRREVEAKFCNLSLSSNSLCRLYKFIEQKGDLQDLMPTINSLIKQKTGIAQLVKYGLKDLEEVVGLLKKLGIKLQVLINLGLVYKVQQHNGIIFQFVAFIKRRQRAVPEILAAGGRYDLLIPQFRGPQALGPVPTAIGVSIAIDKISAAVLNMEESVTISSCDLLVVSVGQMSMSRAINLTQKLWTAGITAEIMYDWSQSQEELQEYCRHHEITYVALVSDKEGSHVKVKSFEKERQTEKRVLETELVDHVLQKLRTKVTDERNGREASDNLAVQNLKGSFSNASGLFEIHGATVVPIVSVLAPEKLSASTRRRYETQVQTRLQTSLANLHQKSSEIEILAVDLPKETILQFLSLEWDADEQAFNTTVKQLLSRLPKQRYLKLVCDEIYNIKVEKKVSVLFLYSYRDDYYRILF
Sequence of intracellular GCN2 (phosphorylation of the GCN2 substrate eIF2α) (Q9P2K8 whole entry): as above

The term IC50 denotes the midpoint of a concentration-inhibition curve. Broadly, the Ki is the dissociation constant of the complex between target and ligand, obtained from inhibition or displacement. In assay [1], `O=S(=O)(NCC1CCCN(c2cc(-c3cnc4ccc(C(F)F)nn34)ncn2)C1)C(F)(F)F` (centres unmarked) [II-379, N-((1-(6-(6-(Difluoromethyl)imidazo[1,2-b]pyridazin-3-yl)pyrimidin-4-yl)piperidin-3-yl)methyl)-1,1,1-trifluoromethanesulfonamide] returned an IC50 of 0.5 to 5 µM. Also, the Ki on GCN2 kinase lay in the range of 0.01 to 1 µM.

In assay [1], `FC(F)c1ccc2ncc(-c3cc(N4CCCCC4C(F)(F)F)ncn3)n2n1` (centres unmarked) [II-380, 6-(Difluoromethyl)-3-(6-(2-(trifluoromethyl)piperidin-1-yl)pyrimidin-4-yl)imidazo[1,2-b]pyridazine] had a 50% inhibitory concentration (IC50) of more than 5 µM. The compound further had a Ki at GCN2 kinase of more than 1 µM.

In assay [1], `CC1C(CNS(C)(=O)=O)CN(c2cc(-c3cnc4ccc(C(F)F)nn34)ncn2)CC1(F)F` (centres unmarked) [II-381, N-((1-(6-(6-(Difluoromethyl)imidazo[1,2-b]pyridazin-3-yl)pyrimidin-4-yl)-5,5-difluoro-4-methylpiperidin-3-yl)methyl)methanesulfonamide] came in with an IC50 of less than 0.5 µM. The Ki at GCN2 kinase is less than 0.01 µM.

Take `CC1C(CNS(C)(=O)=O)CN(c2cc(-c3cnc4ccc(C(F)F)nn34)ncn2)CC1(F)F` (centres unmarked) [II-382, N-((1-(6-(6-(Difluoromethyl)imidazo[1,2-b]pyridazin-3-yl)pyrimidin-4-yl)-5,5-difluoro-4-methylpiperidin-3-yl)methyl)methanesulfonamide]: the IC50 in assay [1] fell in the range of 0.5 to 5 µM. Also, the Ki at GCN2 kinase lay in the range of 0.01 to 1 µM.

On to `CS(=O)(=O)NCC1CN(c2cc(-c3cnc4ccc(C(F)F)nn34)ncn2)CC2(CC2)O1` (centres unmarked) [II-383, N-((7-(6-(6-(Difluoromethyl)imidazo[1,2-b]pyridazin-3-yl)pyrimidin-4-yl)-4-oxa-7-azaspiro[2.5]octan-5-yl)methyl)methanesulfonamide], for which the IC50 in assay [1] was in the range of 0.5 to 5 µM. The compound further came in with an inhibition constant Ki on GCN2 kinase of 0.01 to 1 µM.

In turn, `CS(=O)(=O)NCC1CN(c2cc(-c3cnc4ccc(C(F)F)nn34)ncn2)CC2(CC2)O1` (centres unmarked) [II-384, N-((7-(6-(6-(Difluoromethyl)imidazo[1,2-b]pyridazin-3-yl)pyrimidin-4-yl)-4-oxa-7-azaspiro[2.5]octan-5-yl)methyl)methanesulfonamide] showed an IC50 in assay [1] of less than 0.5 µM. Further, on GCN2 kinase, the inhibition constant (Ki) is less than 0.01 µM.

In the case of `CNS(=O)(=O)NCC1CCCN(c2cc(-c3cnc4ccc(C(F)F)nn34)ncn2)C1` (centres unmarked) [II-385, 1-((1-(6-(6-(Difluoromethyl)imidazo[1,2-b]pyridazin-3-yl)pyrimidin-4-yl)piperidin-3-yl)methyl)-3-methylsulfuric diamide], the concentration for half-maximal inhibition (IC50) in assay [1] was less than 0.5 µM. The compound also had an inhibitory constant (Ki) on GCN2 kinase of less than 0.01 µM.

In assay [1], `CNS(=O)(=O)NCC1CN(c2cc(-c3cnc4ccc(C(F)F)nn34)ncn2)CCO1` (centres unmarked) [II-386, 1-((4-(6-(6-(Difluoromethyl)imidazo[1,2-b]pyridazin-3-yl)pyrimidin-4-yl)morpholin-2-yl)methyl)-3-methylsulfuric diamide] came in with an IC50 of less than 0.5 µM. Also, on GCN2 kinase, the Ki was less than 0.01 µM.

In assay [1], `CC1C(CNS(N)(=O)=O)CCCN1c1cc(-c2cnc3ccc(C(F)F)nn23)ncn1` (centres unmarked) [II-387, 6-(Difluoromethyl)-3-[6-[2-methyl-3-[(sulfamoylamino)methyl]-1-piperidyl]pyrimidin-4-yl]imidazo[1,2-b]pyridazine] came in with an IC50 of 0.5 to 5 µM. The compound also displayed an inhibition constant (Ki) at GCN2 kinase of 0.01 to 1 µM.

`COC1CCN(c2cc(-c3cnc4ccc(C(F)F)nn34)ncn2)CC1CNS(C)(=O)=O` (centres unmarked) [II-390, N-((1-(6-(6-(Difluoromethyl)imidazo[1,2-b]pyridazin-3-yl)pyrimidin-4-yl)-4-methoxypiperidin-3-yl)methyl)methanesulfonamide] had a concentration for half-maximal inhibition (IC50) in assay [1] of less than 0.5 µM. For the same compound, the Ki at GCN2 kinase was less than 0.01 µM.

`CCC1C(CNS(C)(=O)=O)CCCN1c1cc(-c2cnc3ccc(C(F)F)nn23)ncn1` (centres unmarked) [II-391, N-((1-(6-(6-(Difluoromethyl)imidazo[1,2-b]pyridazin-3-yl)pyrimidin-4-yl)-2-ethylpiperidin-3-yl)methyl)methanesulfonamide]: the IC50 in assay [1] is less than 0.5 µM. The compound further displayed a Ki at GCN2 kinase of less than 0.01 µM.

In turn, `CS(=O)(=O)NCC1CCN(c2cc(-c3cnc4ccc(C(F)F)nn34)ncn2)C1` (centres unmarked) [II-394, N-((1-(6-(6-(Difluoromethyl)imidazo[1,2-b]pyridazin-3-yl)pyrimidin-4-yl)pyrrolidin-3-yl)methyl)methanesulfonamide] returned an IC50 in assay [1] of 0.5 to 5 µM. On GCN2 kinase, this compound gave an inhibition constant (Ki) of 0.01 to 1 µM.

`CS(=O)(=O)C1CCN(c2cc(-c3cnc4ccc(C(F)F)nn34)ncn2)C1` (centres unmarked) [II-395, 6-(Difluoromethyl)-3-(6-(3-(methylsulfonyl)pyrrolidin-1-yl)pyrimidin-4-yl)imidazo[1,2-b]pyridazine] came in with an IC50 in assay [1] of more than 5 µM. In addition, the Ki at GCN2 kinase fell in the range of 0.01 to 1 µM.

Turning to `CS(=O)(=O)CC1CCN(c2cc(-c3cnc4ccc(C(F)F)nn34)ncn2)C1` (centres unmarked) [II-396, 6-(Difluoromethyl)-3-(6-(3-((methylsulfonyl)methyl)pyrrolidin-1-yl)pyrimidin-4-yl)imidazo[1,2-b]pyridazine], the IC50 in assay [1] lay within 0.5 to 5 µM. The same compound came in with an inhibition constant Ki on GCN2 kinase of 0.01 to 1 µM.

The compound `CC1CC(CNS(C)(=O)=O)CN(c2cc(-c3cnc4ccc(C(F)F)nn34)ncn2)C1` (centres unmarked) [II-397, N-((1-(6-(6-(Difluoromethyl)imidazo[1,2-b]pyridazin-3-yl)pyrimidin-4-yl)-5-methylpiperidin-3-yl)methyl)methanesulfonamide] displayed an IC50 in assay [1] of less than 0.5 µM. The compound also showed an inhibition constant (Ki) on GCN2 kinase of less than 0.01 µM.

For `CC1CC(CNS(C)(=O)=O)CN(c2cc(-c3cnc4ccc(C(F)F)nn34)ncn2)C1` (centres unmarked) [II-398, N-((1-(6-(6-(Difluoromethyl)imidazo[1,2-b]pyridazin-3-yl)pyrimidin-4-yl)-5-methylpiperidin-3-yl)methyl)methanesulfonamide], the half-maximal inhibitory concentration (IC50) in assay [1] was 0.5 to 5 µM. Moreover, on GCN2 kinase, the Ki lay in the range of 0.01 to 1 µM.

The compound `NC(=O)C1CCN(c2cc(-c3cnc4ccc(C(F)F)nn34)ncn2)C1` (centres unmarked) [II-399, 1-(6-(6-(Difluoromethyl)imidazo[1,2-b]pyridazin-3-yl)pyrimidin-4-yl)pyrrolidine-3-carboxamide] returned a half-maximal inhibitory concentration (IC50) in assay [1] of more than 5 µM. Moreover, the inhibitory constant (Ki) at GCN2 kinase lay within 0.01 to 1 µM.

For the compound `FC(F)c1ccc2ncc(-c3cc(N4CCOCC45CC5)ncn3)n2n1` [II-400, 4-(6-(6-(Difluoromethyl)imidazo[1,2-b]pyridazin-3-yl)pyrimidin-4-yl)-7-oxa-4-azaspiro[2.5]octane], the concentration for half-maximal inhibition (IC50) in assay [1] was more than 5 µM. This compound registered a Ki at GCN2 kinase of 0.01 to 1 µM.

`CC1(C)COCCN1c1cc(-c2cnc3ccc(C(F)F)nn23)ncn1` [II-402, 4-(6-(6-(Difluoromethyl)imidazo[1,2-b]pyridazin-3-yl)pyrimidin-4-yl)-3,3-dimethylmorpholine] registered a half-inhibitory concentration (IC50) in assay [1] of more than 5 µM. Further, the Ki at GCN2 kinase was 0.01 to 1 µM.

As for `CC1(C)CN(c2cc(-c3cnc4ccc(C(F)F)nn34)ncn2)C[C@@H](CNS(C)(=O)=O)O1` [II-403, (S)—N-((4-(6-(6-(Difluoromethyl)imidazo[1,2-b]pyridazin-3-yl)pyrimidin-4-yl)-6,6-dimethylmorpholin-2-yl)methyl)methanesulfonamide], the IC50 in assay [1] is less than 0.5 µM. On GCN2 kinase, this compound gave a Ki of less than 0.01 µM.

For the compound `CS(C)(=O)=NC[C@@H]1CN(c2cc(-c3cnc4ccc(C(F)(F)F)nn34)ncn2)CCO1` [II-406, (S)-Dimethyl(((4-(6-(6-(trifluoromethyl)imidazo[1,2-b]pyridazin-3-yl)pyrimidin-4-yl)morpholin-2-yl)methyl)imino)-λ^6-sulfanone], the IC50 in assay [1] was more than 5 µM. At GCN2 kinase, this compound came in with a Ki of more than 1 µM.

Turning to `CS(C)(=O)=NC1CCCN(c2cc(-c3cnc4ccc(C(F)(F)F)nn34)ncn2)C1` (centres unmarked) [II-407, Dimethyl((1-(6-(6-(trifluoromethyl)imidazo[1,2-b]pyridazin-3-yl)pyrimidin-4-yl)piperidin-3-yl)imino)-λ^6-sulfanone], in assay [1], the IC50 is more than 5 µM. At GCN2 kinase, this compound showed a Ki of 0.01 to 1 µM.

In assay [1], `CS(C)(=O)=NC1CCCN(c2cc(-c3cnc4ccc(C(F)F)nn34)ncn2)C1` (centres unmarked) [II-408, ((1-(6-(6-(Difluoromethyl)imidazo[1,2-b]pyridazin-3-yl)pyrimidin-4-yl)piperidin-3-yl)imino)dimethyl-λ^6-sulfanone] returned an IC50 of 0.5 to 5 µM. The compound further yielded an inhibition constant Ki on GCN2 kinase of 0.01 to 1 µM.

In assay [1], `NCC1CCN(c2cc(-c3cnc4ccc(C(F)F)nn34)ncn2)C1` (centres unmarked) [II-409, (1-(6-(6-(Difluoromethyl)imidazo[1,2-b]pyridazin-3-yl)pyrimidin-4-yl)pyrrolidin-3-yl)methanamine] returned a 50% inhibitory concentration (IC50) of more than 5 µM. The same compound displayed a Ki at GCN2 kinase of 0.01 to 1 µM.

`CN1CCN(c2cc(-c3cnc4ccc(C(F)F)nn34)ncn2)C[C@H]1CNS(C)(=O)=O` [II-410] yielded an IC50 in assay [1] of 0.5 to 5 µM. In addition, at GCN2 kinase, the Ki was in the range of 0.01 to 1 µM.

Compound `CC1CN(c2cc(-c3cnc4ccc(C(F)F)nn34)ncn2)CC(CNS(C)(=O)=O)N1` (centres unmarked) [II-411] registered an IC50 in assay [1] of 0.5 to 5 µM. This compound also gave a Ki on GCN2 kinase of 0.01 to 1 µM.

Compound `CC1(NS(C)(=O)=O)CCCN(c2cc(-c3cnc4ccc(C(F)F)nn34)ncn2)C1` (centres unmarked) [II-412, N-(1-(6-(6-(Difluoromethyl)imidazo[1,2-b]pyridazin-3-yl)pyrimidin-4-yl)-3-methylpiperidin-3-yl)methanesulfonamide] registered a half-maximal inhibitory concentration (IC50) in assay [1] of 0.5 to 5 µM. The same compound had an inhibition constant (Ki) at GCN2 kinase of 0.01 to 1 µM.

As to `NS(=O)(=O)NCC1CCN(c2cc(-c3cnc4ccc(C(F)F)nn34)ncn2)C1` (centres unmarked) [II-415, 1-((1-(6-(6-(Difluoromethyl)imidazo[1,2-b]pyridazin-3-yl)pyrimidin-4-yl)pyrrolidin-3-yl)methyl)sulfuric diamide], the half-maximal inhibitory concentration (IC50) in assay [1] is more than 5 µM. In addition, the Ki on GCN2 kinase lay in the range of 0.01 to 1 µM.
